# Test results from patent publication US12421211B2, “Heterocyclic compounds” (Hoffmann-La Roche Inc., priority 2021, dated 2025).
# Structures can show the parent of a compound that is named as a salt.
# Test system: Acinetobacter baumannii ATCC17961
# Experiment: Antimicrobial susceptibility testing: 90% growth inhibitory concentration (IC90) determination
# Assay type: cell-based
# Conditions: Acinetobacter baumannii, ATCC17961, 16 h, 90% growth inhibitory concentration, Acinetobacter baumannii ATCC17961, Iso-Sensitest broth, OD 600 nm over 16 h; read-out: ATCC 17961 IC90
# How it was run: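 Growth inhibition derived in log phase from OD600 kinetics (every 20 minutes, 16h, 35±2° C) of ATCC17961 in Iso-Sensitest medium, inoculum ~5×10^5 CFU/ml. Compounds tested as twofold series, 10 points (e.g. 50 to 0.097 μM final); IC90 and IC50 reported.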
row,SMILES,IC90
1,"Cc1nn(CC(=O)Nc2ccc(C#N)nc2)cc1-c1ccc(-c2cnc(C(=O)Nc3ccc(C(=O)N4CCN(C(=O)C5CC[N+](C)(C)CC5)CC4)c(Cl)c3)n2C)c(F)c1F [Example G34, N-[3-chloro-4-[4-(1,1-dimethylpiperidin-1-ium-4-carbonyl)piperazine-1-carbonyl]phenyl]-5-[4-[1-[2-[(6-cyano-3-pyridyl)amino]-2-oxo-ethyl]-3-methyl-pyrazol-4-yl]-2,3-difluoro-phenyl]-1-methyl-imidazole-2-carboxamide; formate]",0.068 µM
2,"Cc1nn(CC2CC2(F)F)c(C)c1-c1ccc(-c2cnc(C(=O)Nc3ccc(C(=O)N4CCN(C(=O)C5C[C@@H](O)C[N+]5(C)C)CC4)c(Cl)c3)n2C)c(F)c1F (stereo partly drawn) [Example K3, N-[3-chloro-4-[4-[(4R)-4-hydroxy-1,1-dimethyl-pyrrolidin-1-ium-2-carbonyl]piperazine-1-carbonyl]phenyl]-5-[4-[1-2,2-difluorocyclopropyl)methyl]-3,5-dimethyl-pyrazol-4-yl]-2,3-difluoro-phenyl]-1-methyl-imidazole-2-carboxamide; formate]",0.3 µM
3,"Cc1n[nH]c(C)c1-c1ccc(-c2cnc(C(=O)Nc3ccc(C(=O)N4CCN(C(=O)C[N+](C)(C)C)CC4)c(Cl)c3)n2C)cc1 [Example F52, [2-[4-[2-chloro-4-[[5-[4-(3,5-dimethyl-1H-pyrazol-4-yl)phenyl]-1-methyl-imidazole-2-carbonyl]amino]benzoyl]piperazin-1-yl]-2-oxo-ethyl]-trimethyl-ammonium; 2,2,2-trifluoroacetate]",0.27 µM
4,"COCCn1ncc(-c2cc(C)c(-c3cnc(C(=O)Nc4ccc(C(=O)N5CCN(C(=O)C6CC[N+](CC(=O)O)(CC7CNC7)CC6)CC5)c(Cl)c4)n3C)cc2Cl)c1C (stereo not shown) [Example B40, 2-[1-(azetidin-3-ylmethyl)-4-[4-[2-chloro-4-[[5-[5-chloro-4-[1-(2-methoxyethyl)-5-methyl-pyrazol-4-yl]-2-methyl-phenyl]-1-methyl-imidazole-2-carbonyl]amino]benzoyl]piperazine-1-carbonyl]piperidin-1-ium-1-yl]acetic acid; formate]",1.8 µM
5,"COc1ccc(-c2[nH]ncc2-c2ccc(-c3cnc(C(=O)Nc4ccc(C(=O)N5CCN(C(=O)C6CCNCC6)CC5)c(Cl)c4)n3C)c(F)n2)cc1 [Example E17, N-[3-chloro-4-[4-(piperidine-4-carbonyl)piperazine-1-carbonyl]phenyl]-5-[2-fluoro-6-[5-(4-methoxyphenyl)-1H-pyrazol-4-yl]-3-pyridyl]-1-methyl-imidazole-2-carboxamide; formic acid]",0.71 µM

# Next, values leading:
row,IC90,SMILES
1,0.098 µM,"COCCn1ncc(-c2ccc(-c3cnc(C(=O)Nc4ccc(C(=O)N5CCC(C(=O)N6CC[N+](C)(C)CC6)CC5)c(Cl)c4)n3C)c(F)c2F)c1C [Example A10, N-[3-chloro-4-[4-(4,4-dimethylpiperazin-4-ium-1-carbonyl)piperidine-1-carbonyl]phenyl]-5-[2,3-difluoro-4-[1-(2-methoxyethyl)-5-methyl-pyrazol-4-yl]phenyl]-1-methyl-imidazole-2-carboxamide; formate]"
2,0.24 µM,"COCCn1ncc(-c2ccc(-c3cnc(C(=O)Nc4ccc(C(=O)N5CCN(C(=O)C67CC(N)(C6)C7)CC5)c(Cl)c4)n3C)c(F)c2F)c1C [Example D30, N-[4-[4-(3-aminobicyclo[1.1.1]pentane-1-carbonyl)piperazine-1-carbonyl]-3-chloro-phenyl]-5-[2,3-difluoro-4-[1-(2-methoxyethyl)-5-methyl-pyrazol-4-yl]phenyl]-1-methyl-imidazole-2-carboxamide; 2,2,2-trifluoroacetic acid]"
3,0.191 µM,"COCCn1ncc(-c2ccc(-c3cnc(C(=O)Nc4ccc(C(=O)N5CCN(C(=O)CCC[N+](C)(CC(=O)O)CC6CNC6)CC5)c(Cl)c4)n3C)c(F)c2F)c1C (stereo not shown) [Example P1, azetidin-3-ylmethyl-(carboxymethyl)-[4-[4-[2-chloro-4-[[5-[2,3-difluoro-4-[1-(2-methoxyethyl)-5-methyl-pyrazol-4-yl]phenyl]-1-methyl-imidazole-2-carbonyl]amino]benzoyl]piperazin-1-yl]-4-oxo-butyl]-methyl-ammonium; formate]"
4,0.17 µM,"COCCn1ncc(-c2ccc(-c3cnc(C(=O)Nc4ccc(C(=O)N5CCN(C(=O)C6CC[N+](C)(C)CC6)CC5)c(Cl)c4)n3C)c(Cl)c2)c1C [Example F22, N-[3-chloro-4-[4-(1,1-dimethylpiperidin-1-ium-4-carbonyl)piperazine-1-carbonyl]phenyl]-5-[2-chloro-4-[1-(2-methoxyethyl)-5-methyl-pyrazol-4-yl]phenyl]-1-methyl-imidazole-2-carboxamide; formate]"
5,0.21 µM,"COCCn1ncc(-c2ccc(-c3cnc(C(=O)Nc4ccc(C(=O)N5CCNCC5)c(Cl)c4)n3C)c(F)c2F)c1C [Example E7, N-[3-chloro-4-(piperazine-1-carbonyl)phenyl]-5-[2,3-difluoro-4-[1-(2-methoxyethyl)-5-methyl-pyrazol-4-yl]phenyl]-1-methyl-imidazole-2-carboxamide; 2,2,2-trifluoroacetic acid]"
6,0.065 µM,"COCCn1ncc(-c2ccc(-c3cnc(C(=O)Nc4ccc(C(=O)N5CCN(C(=O)[C@@H]6C[C@@H](O)CN6)CC5)c(Cl)c4)n3C)c(F)c2F)c1C [Example E9, N-[3-chloro-4-[4-[(2S,4R)-4-hydroxypyrrolidine-2-carbonyl]piperazine-1-carbonyl]phenyl]-5-[2,3-difluoro-4-[1-(2-methoxyethyl)-5-methyl-pyrazol-4-yl]phenyl]-1-methyl-imidazole-2-carboxamide; 2,2,2-trifluoroacetic acid]"
7,0.22 µM,"COCCn1cc(-c2ccc(-c3cnc(C(=O)Nc4ccc(C(=O)N5CCN(C(=O)[C@@H]6C[C@@H](O)CN6)CC5)c(Cl)c4)n3C)c(F)c2F)c(C)n1 [Example D31, N-[3-chloro-4-[4-[(2S,4R)-4-hydroxypyrrolidine-2-carbonyl]piperazine-1-carbonyl]phenyl]-5-[2,3-difluoro-4-[1-(2-methoxyethyl)-3-methyl-pyrazol-4-yl]phenyl]-1-methyl-imidazole-2-carboxamide; formic acid]"
8,1 µM,"Cc1c(-c2ccc(-c3cnc(C(=O)Nc4ccc(C(=O)N5CCN(C(=O)C6CC[N+](C)(C)CC6)CC5)c(Cl)c4)n3C)c(F)c2F)cnn1CC(=O)Nc1cccnn1 [Example G25, N-[3-chloro-4-[4-(1,1-dimethylpiperidin-1-ium-4-carbonyl)piperazine-1-carbonyl]phenyl]-5-[2,3-difluoro-4-[5-methyl-1-[2-oxo-2-(pyridazin-3-ylamino)ethyl]pyrazol-4-yl]phenyl]-1-methyl-imidazole-2-carboxamide; formate]"
9,0.1 µM,"Cc1n[nH]cc1-c1ccc(-c2cnc(C(=O)Nc3ccc(C(=O)N4CCN(C(=O)C[N+]5(C)CCCC5)CC4)c(Cl)c3)n2C)c(F)c1F [Example D15, N-[3-chloro-4-[4-[2-(1-methylpyrrolidin-1-ium-1-yl)acetyl]piperazine-1-carbonyl]phenyl]-5-[2,3-difluoro-4-(3-methyl-1H-pyrazol-4-yl)phenyl]-1-methyl-imidazole-2-carboxamide; formate]"
10,0.095 µM,"COCCn1ncc(-c2ccc(-c3cnc(C(=O)Nc4ccc(C(=O)N5CCC(C(=O)N6CC[N+](CC(N)=O)(CC7CNC7)CC6)CC5)c(Cl)c4)n3C)c(F)c2F)c1C [Example B24, N-[4-[4-[4-(2-amino-2-oxo-ethyl)-4-(azetidin-3-ylmethyl)piperazin-4-ium-1-carbonyl]piperidine-1-carbonyl]-3-chloro-phenyl]-5-[2,3-difluoro-4-[1-(2-methoxyethyl)-5-methyl-pyrazol-4-yl]phenyl]-1-methyl-imidazole-2-carboxamide; 2,2,2-trifluoroacetate; 2,2,2-trifluoroacetic acid]"
11,0.048 µM,"COCCn1ncc(-c2ccc(-c3cnc(C(=O)Nc4ccc(C(=O)N5CCN(C(=O)C[C@@H]6CCNC6)CC5)c(Cl)c4)n3C)c(F)c2F)c1C [Example E2, N-[3-chloro-4-[4-[2-[(3S)-pyrrolidin-3-yl]acetyl]piperazine-1-carbonyl]phenyl]-5-[2,3-difluoro-4-[1-(2-methoxyethyl)-5-methyl-pyrazol-4-yl]phenyl]-1-methyl-imidazole-2-carboxamide; formic acid]"

# Same assay, conditions: Acinetobacter baumannii, ATCC17961, 16 h, read-out: ATCC 17961 IC90
row,SMILES,IC90
1,"COCCn1cc(-c2ccc(-c3cnc(C(=O)Nc4ccc(C(=O)N5CCN(C(=O)C6CC[N+]7(CC6)CCN(Cc6ccccc6)CC7)CC5)c(Cl)c4)n3C)c(F)c2F)c(C)n1 [Example Q2, N-[4-[4-(3-benzyl-3-aza-6-azoniaspiro[5.5]undecane-9-carbonyl)piperazine-1-carbonyl]-3-chloro-phenyl]-5-[2,3-difluoro-4-[1-(2-methoxyethyl)-3-methyl-pyrazol-4-yl]phenyl]-1-methyl-imidazole-2-carboxamide]",0.705 µM
2,"Cc1nn(CC(=O)Nc2ccc(N3CCOCC3)nn2)cc1-c1ccc(-c2cnc(C(=O)Nc3ccc(C(=O)N4CCN(C(=O)C5CC[N+](C)(C)CC5)CC4)c(Cl)c3)n2C)c(F)c1F [Example L5, N-[3-chloro-4-[4-(1,1-dimethylpiperidin-1-ium-4-carbonyl)piperazine-1-carbonyl]phenyl]-5-[2,3-difluoro-4-[3-methyl-1-[2-[(6-morpholinopyridazin-3-yl)amino]-2-oxo-ethyl]pyrazol-4-yl]phenyl]-1-methyl-imidazole-2-carboxamide; formate]",0.374 µM
3,"Cc1n[nH]c(C)c1-c1ccc(-c2cnc(C(=O)Nc3ccc(C(=O)N4CCN(C(=O)[C@@H]5C[C@@H](O)C[N+]5(C)C)CC4)c(Cl)c3)n2C)c(F)c1F [Example D43, N-[3-chloro-4-[4-[(2S,4R)-4-hydroxy-1,1-dimethyl-pyrrolidin-1-ium-2-carbonyl]piperazine-1-carbonyl]phenyl]-5-[4-(3,5-dimethyl-1H-pyrazol-4-yl)-2,3-difluoro-phenyl]-1-methyl-imidazole-2-carboxamide; formate]",0.81 µM
